Results: a compilation of properties of binary mixtures (doi:10.1016/j.molliq.2014.07.002)

Test: xn = mol fraction of the nth substance listed
Conditions: 101 kPa

CN1CCCC1=O + CCCC[n+]1ccn(C)c1.[Cl-]
x1 = 1
Conditions	speed of sound [m/s]
308.15 K	1528
313.15 K	1520

CCCC[n+]1ccn(C)c1.[Cl-] + CN1CCCC1=O
speed of sound [m/s]
Conditions	298.15 K	303.15 K	308.15 K	313.15 K
x1 = 0.0138	1575	1555	1531	1527
x2 = 0	1874	1865	1855	1827
x2 = 0.01	–	1860	1848	–
x2 = 0.0396	1853	1844	–	–
x2 = 0.0814	1837	1829	1819	1796
x2 = 0.1986	1800	1790	1779	1760
x2 = 0.3683	1755	–	–	–
x2 = 0.5125	1723	–	1688	1674
x2 = 0.6367	–	1674	1654	–
x2 = 0.704	1670	1655	–	1623
x2 = 0.7466	1656	–	1621	1611
x2 = 0.8415	1625	1609	–	–
x2 = 0.8939	1606	1588	1568	1559
x2 = 0.9254	–	–	1556	1552
x2 = 0.9721	1579	1562	1539	1536

CN1CCCC1=O + CC[n+]1ccn(C)c1.COS(=O)(=O)[O-]
x1 = 1
Conditions	speed of sound [m/s]	viscosity [mPa·s]
298.15 K	1572	1.66
303.15 K	1552	1.49
308.15 K	1528	1.39

CC[n+]1ccn(C)c1.COS(=O)(=O)[O-] + CN1CCCC1=O
Conditions	speed of sound, 298.15 K [m/s]	speed of sound, 303.15 K [m/s]	speed of sound, 308.15 K [m/s]	speed of sound, 313.15 K [m/s]	viscosity, 298.15 K [mPa·s]	viscosity, 303.15 K [mPa·s]	viscosity, 308.15 K [mPa·s]	viscosity, 313.15 K [mPa·s]
x1 = 0.0115	1579	1557	–	1518	2.22	1.88	–	1.6
x2 = 0	1730	1718	1707	1694	84	69	56.7	47.6
x2 = 0.0419	1724	1708	1692	1679	77	63	51.3	42.8
x2 = 0.0861	1718	1702	1685	–	69	56	45.9	–
x2 = 0.2085	1711	1688	1663	1644	53.3	42.1	33.6	27.7
x2 = 0.3825	1700	–	1651	1632	35.9	–	21.8	17.7
x2 = 0.5291	1684	–	1630	1614	23.3	–	14	11.5
x2 = 0.6518	1663	1638	–	1593	14.6	10.8	–	8.2
x2 = 0.718	1649	1622	–	1579	10.5	8.9	–	6.07
x2 = 0.757	1639	1610	1582	1566	9.2	7.3	5.82	5.22
x2 = 0.8502	–	1589	1560	1545	–	4.04	3.61	3.27
x2 = 0.8983	1604	1577	1544	1528	4.01	3.11	2.8	2.56
x2 = 0.9298	1596	–	1536	1524	3.43	–	2.22	2.11
x2 = 0.9743	1582	1560	1534	1522	3.11	2.05	1.86	1.73
